The text below walks through data of patent US10947205B2, “Oxazolidinone compounds and methods of use thereof as antibacterial agents” (priority 2015, dated 2021).

For test [1], the system named is Mycobacterium tuberculosis (Mtb). The experiment in a line: microbe, parasite or virus in culture. It counts as cell-based, Mycobacterium tuberculosis H37Rv (Mtb-GFP). To be noted: 168 h.
Test [2] has as its system Staphylococcus aureus (methicillin resistant, MB5393, COL). The experiment in a line: microbe, parasite or virus in culture. The class given is cell-based. Conditions: MRSA, 22 h, read-out: MRSA COL MITC95 μM. On the procedure:
Inhibition of Staphylococcus aureus (methicillin resistant, MB5393, COL) growth was assessed in cation adjusted Mueller Hinton II broth (CAMHB) in 384-well microtiter plates. Bacteria were dispensed into microtiter plates at approximately 5×10^5 actively growing cells in 49 μL volumes per well. Cells were exposed to 2-fold serial dilutions of compounds from 200 μM to 0.195 μM and growth compared to drug-free control. Compound dilutions were prepared in 100% dimethylsulfoxide and added to microtiter plates in 1 μL volumes per well. Full growth control wells contained dimethylsufoxide and bacteria. No growth control wells contained dimethysulfoxide and CAMHB but no bacteria. Growth inhibition was assessed after a 22-hour growth period by measuring optical density using a spectrophotometer. The lowest concentration of test compound required to inhibit 95% of the growth of the bacteria was defined as the MITC95. All studies were done in a BSL2 facility.

Test [3] deals with mitochondrial protein synthesis in HepG2 cells (COX-I / SDH-A). As to the kind of experiment: Mitochondrial protein synthesis assay. It counts as cell-based. Conditions: Homo sapiens, read-out: MPS IC50_μM. On the procedure: (§1) Inhibition of mitochondrial protein synthesis was assessed in HepG2 cells by comparing the levels of two subunits of oxidative phosphorylation enzyme complexes, subunit I of Complex IV (COX-I) and the 70 kDa subunit of Complex II (SDH-A). COX-I is mitochondrial DNA encoded and SDH-A is nuclear DNA encoded. HepG2 cells were seeded in 96-well collagen coated plates at 8,000 cells per well and exposed to 2-fold serial dilutions of compounds from 100 LM to 6.25 μM. Microtiter plates were incubated for approximately 5 replication cycles (4 days) prior to assessment of protein levels using a kit as described by the manufacturer (ab 110217 MitoBiogenesis In Cell ELISA Kit, Abcam, Cambridge, Mass.). Inhibition of mitochondrial protein synthesis was expressed as a ratio of COX-1 to SDH-A levels.
as §1, with “μM” for “LM”

Setting [4] is: pH 6.8, read-out: Mtb Cho MITC95_μM.
Where [5] appears, read: pH 6.8, read-out: Mtb Glu MITC95_μM.
Setting [6] is: 96 h, HepG2 cells, 4 days, ratio of COX-1 to SDH-A levels.

In brackets after ≈: the same amount, converted by molar mass. Read-outs that look alike come from different tables or passages of the source.

For `NC[C@H]1CN(c2ccc(-c3ccc(F)nc3)c(F)c2)C(=O)O1` [Example 19, (5S)-5-(aminomethyl)-3-[3-fluoro-4-(6-fluoropyridin-3-yl)phenyl]-1,3-oxazolidin-2-one], the MIC in test [1] (setting [4]) came to 0.09 µM (≈ 0.0275 µg/mL); in test [1] (setting [5]), 0.485 µM (≈ 0.148 µg/mL); in test [2], 200 µM (≈ 61.1 µg/mL). In addition, the IC50 in test [3] (setting [6]) is above 20 µM.
Turning to `CC(=O)NC[C@H]1CN(c2ccc(N3CCn4ncnc4C3)cc2)C(=O)O1` [Example 42, (S)—N-((3-(4-(5,6-dihydro-[1,2,4]triazolo[1,5-a]pyrazin-7(8H)-yl)phenyl)-2-oxooxazolidin-5-yl)methyl)acetamide], the MIC in test [1] (setting [4]) is 1.5 µM (≈ 0.535 µg/mL); in test [1] (setting [5]), 1.5 µM (≈ 0.535 µg/mL); in test [2], 200 µM (≈ 71.3 µg/mL). The IC50 in test [3] (HepG2, 96 h) was above 20 µM.
Regarding `CS(=O)(=O)Nc1ccc(-c2ccc(N3C[C@H](CN)OC3=O)cc2F)cc1` [Example 17, N-{4′-[(5S)-5-(aminomethyl)-2-oxo-1,3-oxazolidin-3-yl]-2′-fluorobiphenyl-4-yl}methanesulfonamide], the MIC in test [1] (setting [4]) turned out to be 0.29 µM (≈ 0.11 µg/mL); in test [1] (setting [5]) it was 0.09 µM (≈ 0.0341 µg/mL); in test [2], 200 µM (≈ 75.9 µg/mL). The IC50 in test [3] (setting [6]) was above 20 µM.
Taken in the same sequence, the figures for `CS(=O)(=O)c1ccc(-c2ccc(N3C[C@H](CN)OC3=O)cc2F)cc1` [Example 4, (5S)-5-(aminomethyl)-3-[2-fluoro-4′-(methylsulfonyl)biphenyl-4-yl]-1,3-oxazolidin-2-one] were 0.09 µM (≈ 0.0328 µg/mL), 0.04 µM (≈ 0.0146 µg/mL), 200 µM (≈ 72.9 µg/mL) and 22 µM.
For `NC[C@H]1CN(c2ccc(-c3ccnc(Cl)c3)c(F)c2)C(=O)O1` [Example 30, (5S)-5-(aminomethyl)-3-[4-(2-chloropyridin-4-yl)-3-fluorophenyl]-1,3-oxazolidin-2-one], the MIC in test [1] (setting [4]) was found to be 0.39 µM (≈ 0.125 µg/mL); in test [1] (setting [5]) it was 0.09 µM (≈ 0.029 µg/mL); in test [2], 200 µM (≈ 64.3 µg/mL). Further, in test [3] (setting [6]), the IC50 is above 20 µM.
`CSc1ccc(-c2ccc(N3C[C@H](Cn4cnnn4)OC3=O)cc2F)cc1` [Example 44, (5R)-3-[2-fluoro-4′-(methylsulfanyl)biphenyl-4-yl]-5-(1H-tetrazol-1-ylmethyl)-1,3-oxazolidin-2-one]: the figures for the MIC in test [1] (setting [4]), in test [1] (setting [5]) and in test [2] were 0.04 µM (≈ 0.0154 µg/mL), 0.19 µM (≈ 0.0732 µg/mL) and 200 µM (≈ 77.1 µg/mL), respectively. In addition, the IC50 in test [3] (setting [6]) is above 20 µM.
For the molecule `NC[C@H]1CN(c2ccc(-c3ccc(C(N)=O)cc3)c(F)c2)C(=O)O1` [Example 2, 4′-[(5S)-5-(aminomethyl)-2-oxo-1,3-oxazolidin-3-yl]-2′-fluorobiphenyl-4-carboxamide], the figures for the MIC in test [1] (setting [4]), in test [1] (setting [5]) and in test [2] were 0.03 µM (≈ 0.00988 µg/mL), 0.02 µM (≈ 0.00659 µg/mL) and 200 µM (≈ 65.9 µg/mL), respectively. Besides, the IC50 in test [3] (setting [6]) is above 25 µM.
Taken in the same sequence, the figures for `CSc1cccc(-c2ccc(N3C[C@H](CN)OC3=O)cc2F)c1` [Example 3, (5S)-5-(aminomethyl)-3-[2-fluoro-3′-(methylsulfanyl)biphenyl-4-yl]-1,3-oxazolidin-2-one] were 0.78 µM (≈ 0.259 µg/mL), 1.14 µM (≈ 0.379 µg/mL), 100 µM (≈ 33.2 µg/mL) and above 20 µM.
Regarding `NC[C@H]1CN(c2ccc(-c3cccs3)c(F)c2)C(=O)O1` [Example 56, (S)-5-(aminomethyl)-3-(3-fluoro-4-(thiophen-2-yl)phenyl)oxazolidin-2-one], the MIC in test [1] (setting [4]) amounted to 0.39 µM (≈ 0.114 µg/mL); in test [1] (setting [5]), 0.39 µM (≈ 0.114 µg/mL); in test [2] it was 100 µM (≈ 29.2 µg/mL). Further, the IC50 in test [3] (setting [6]) was above 20 µM.
Take `CSc1ccc(-c2ccc(N3C[C@H](Cn4occc4=O)OC3=O)cc2F)cc1` [Example 50, (R)-2-((3-(2-fluoro-4′-(methylthio)-[1,1′-biphenyl]-4-yl)-2-oxooxazolidin-5-yl)methyl)isoxazol-3(2H)-one]: the results for the MIC in test [1] (setting [4]), in test [1] (setting [5]) and in test [2] were 0.58 µM (≈ 0.232 µg/mL), 0.29 µM (≈ 0.116 µg/mL) and 200 µM (≈ 80.1 µg/mL), respectively. In addition, the IC50 in test [3] (setting [6]) is above 20 µM.
`CSc1ccc(-c2ncc(N3C[C@H](CNC(C)=O)OC3=O)cc2F)cc1` [Example 40, (S)—N-((3-(5-fluoro-6-(4-(methylthio)phenyl)pyridin-3-yl)-2-oxooxazolidin-5-yl)methyl)acetamide]: the MIC in test [1] (setting [4]) worked out at 0.09 µM (≈ 0.0338 µg/mL); in test [1] (setting [5]) it was 0.076 µM (≈ 0.0285 µg/mL); in test [2], 4.69 µM (≈ 1.76 µg/mL). Moreover, in test [3] (HepG2, 96 h), the IC50 is above 15 µM.
For the molecule `NC[C@H]1CN(c2ccc(-c3cccc(C(N)=O)c3)c(F)c2)C(=O)O1` [Example 10, 4′-[(5S)-5-(aminomethyl)-2-oxo-1,3-oxazolidin-3-yl]-2′-fluorobiphenyl-3-carboxamide], the MIC in test [1] (setting [4]) was 0.09 µM (≈ 0.0296 µg/mL); in test [1] (setting [5]) it was 0.09 µM (≈ 0.0296 µg/mL); in test [2], 200 µM (≈ 65.9 µg/mL). The IC50 in test [3] (setting [6]) was above 20 µM.
In the case of `NCC(=O)NC[C@H]1CN(c2ccc(-c3ccc(C(N)=O)cc3)c(F)c2)C(=O)O1` [Example 57, (S)-4′-(5-((2-aminoacetamido)methyl)-2-oxooxazolidin-3-yl)-2′-fluoro-[1,1′-biphenyl]-4-carboxamide], the MIC in test [1] (setting [4]) stood at 0.535 µM (≈ 0.207 µg/mL); in test [1] (setting [5]), 0.29 µM (≈ 0.112 µg/mL); in test [2], 25 µM (≈ 9.66 µg/mL). Further, the IC50 in test [3] (setting [6]) was determined as 50 µM.
Take `O=C1O[C@@H](Cn2ccnn2)CN1c1ccc(-c2ccc(N3CCNCC3)nc2)c(F)c1` [Example 54, (R)-5-((1H-1,2,3-triazol-1-yl)methyl)-3-(3-fluoro-4-(6-(piperazin-1-yl)pyridin-3-yl)phenyl)oxazolidin-2-one]: the MIC is 0.215 µM (≈ 0.091 µg/mL) in test [1] (setting [4]), 0.24 µM (≈ 0.102 µg/mL) in test [1] (setting [5]) and 2.34 µM (≈ 0.991 µg/mL) in test [2]. In addition, the IC50 in test [3] (setting [6]) is above 20 µM.
As to `NC[C@H]1CN(c2ccc(-c3cccc([N+](=O)[O-])c3)c(F)c2)C(=O)O1` [Example 20, (5S)-5-(aminomethyl)-3-(2-fluoro-3′-nitrobiphenyl-4-yl)-1,3-oxazolidin-2-one], the values for the MIC in test [1] (setting [4]), in test [1] (setting [5]) and in test [2] were 0.58 µM (≈ 0.192 µg/mL), 0.14 µM (≈ 0.0464 µg/mL) and 200 µM (≈ 66.3 µg/mL), respectively. Further, the IC50 in test [3] (setting [6]) is above 20 µM.
Turning to `NC[C@H]1CN(c2ccc(-c3cccc(N4CCS(=O)(=O)CC4)c3)c(F)c2)C(=O)O1` [Example 21, (5S)-5-(aminomethyl)-3-[3′-(1,1-dioxidothiomorpholin-4-yl)-2-fluorobiphenyl-4-yl]-1,3-oxazolidin-2-one], the MIC turned out to be 1.5 µM (≈ 0.629 µg/mL) in test [1] (setting [4]), 0.39 µM (≈ 0.164 µg/mL) in test [1] (setting [5]) and 200 µM (≈ 83.9 µg/mL) in test [2]. For the same molecule, the IC50 in test [3] (setting [6]) stood at 25 µM.
Taken in the same sequence, the figures for `NC[C@H]1CN(c2ccc(-c3cccnc3)c(F)c2)C(=O)O1` [Example 24, (5S)-5-(aminomethyl)-3-(3-fluoro-4-pyridin-3-ylphenyl)-1,3-oxazolidin-2-one] were 0.09 µM (≈ 0.0259 µg/mL), 0.04 µM (≈ 0.0115 µg/mL), 200 µM (≈ 57.5 µg/mL) and above 20 µM.
Taken in the same sequence, the figures for `CCOC(=O)NC[C@H]1CN(c2ccc(-c3ccc(SC)cc3)c(F)c2)C(=O)O1` [Example 63, ethyl ({(5S)-3-[2-fluoro-4′-(methylsulfanyl)biphenyl-4-yl]-2-oxo-1,3-oxazolidin-5-yl}methyl)carbamate] were 0.19 µM (≈ 0.0768 µg/mL), 0.29 µM (≈ 0.117 µg/mL), 200 µM (≈ 80.9 µg/mL) and 18 µM.
For the molecule `NC[C@H]1CN(c2ccc(-c3cnc(N4CCCOCC4)nc3)c(F)c2)C(=O)O1` [Example 29, (5S)-5-(aminomethyl)-3-{3-fluoro-4-[2-(1,4-oxazepan-4-yl)pyrimidin-5-yl]phenyl}-1,3-oxazolidin-2-one], the MIC in test [1] (setting [4]) was determined as 1.5 µM (≈ 0.581 µg/mL); in test [1] (setting [5]), 0.39 µM (≈ 0.151 µg/mL); in test [2] it was 200 µM (≈ 77.5 µg/mL). In test [3] (setting [6]), the IC50 is above 25 µM.
With `CSc1ccc(-c2ccc(N3C[C@H](Cn4cccn4)OC3=O)cc2F)cc1` [Example 46, (5R)-3-[2-fluoro-4′-(methylsulfanyl)biphenyl-4-yl]-5-(1H-pyrazol-1-ylmethyl)-1,3-oxazolidin-2-one], the MIC came out at 0.29 µM (≈ 0.111 µg/mL) in test [1] (setting [4]), 0.585 µM (≈ 0.224 µg/mL) in test [1] (setting [5]) and 200 µM (≈ 76.7 µg/mL) in test [2]. Besides, the IC50 in test [3] (setting [6]) was above 20 µM.
As for `NC[C@H]1CN(c2cc(F)c(N3CCOCC3)c(F)c2)C(=O)O1` [Example 59, (S)-5-(aminomethyl)-3-(3,5-difluoro-4-morpholinophenyl)oxazolidin-2-one], the MIC in test [1] (setting [4]) turned out to be 0.39 µM (≈ 0.122 µg/mL); in test [1] (setting [5]) it was 0.09 µM (≈ 0.0282 µg/mL); in test [2], 200 µM (≈ 62.7 µg/mL). In addition, the IC50 in test [3] (setting [6]) was above 20 µM.
